Experimental findings from ChEMBL document CHEMBL3351965, “Taccalonolide microtubule stabilizers” (Bioorg Med Chem, 2014) are described below.

Data set [1] is described as follows: Half life in phosphate buffer saline. The class given is physicochemical. Conditions: phosphate buffered saline.
A further data set has as its system HeLa. Description: Antiproliferative activity against human HeLa cells by SRB assay. The class given is functional, cell-based.

The structures appear in SMILES notation. pIC50: −log10 of the molar value. Bounds are passed on as bounds.

For `CC(=O)O[C@@H]1[C@H]2[C@H]3[C@H]([C@H](OC(C)=O)[C@H](OC(C)=O)[C@]2(C)[C@H]2[C@H](C)[C@@H]4O[C@@]45OC(=O)[C@@](C)(O)[C@]5(C)[C@H]12)[C@]1(C)[C@H](C[C@@H]2O[C@@H]2[C@@H]1OC(C)=O)C(=O)[C@@H]3O`, the half-life (as a rule, how long it takes for the measured level to halve) in data set [1] was 540 min.
For the compound `CC(=O)O[C@@H]1[C@H]2[C@H]3[C@H]([C@H](OC(C)=O)[C@H](OC(C)=O)[C@]2(C)[C@@H]2[C@@H]1[C@]1(C)C(=C[C@@]2(C)OO)OC(=O)[C@@]1(C)O)[C@]1(C)[C@H](C[C@@H]2O[C@@H]2[C@@H]1OC(C)=O)C(=O)[C@@H]3O`, the pIC50 (usually the negative decadic logarithm of the IC50, by convention in mol/L) in the data set with HeLa was under 4.30.
With `CC(=O)O[C@H]1[C@@H]2[C@H]([C@H](C)C=C3OC(=O)[C@@](C)(O)[C@@]32C)[C@]2(C)[C@@H]1C1=C(O)C(=O)[C@H]3C[C@@H]4O[C@@H]4[C@H](OC(C)=O)[C@]3(C)[C@H]1[C@H](OC(C)=O)[C@@H]2OC(C)=O`, the pIC50 in the data set with HeLa is 6.14.
Compound `CC(=O)O[C@@H]1[C@H]2[C@@H]3C(=O)C(O)=C4C[C@@H]5O[C@@H]5[C@H](OC(C)=O)[C@]4(C)[C@H]3[C@H](OC(C)=O)[C@H](OC(C)=O)[C@]2(C)[C@@H]2[C@@H]1[C@]1(C)C(=C[C@H]2C)OC(=O)[C@@]1(C)O` gave a pIC50 in the data set with HeLa of 5.47.
In the data set on HeLa, `CC(=O)O[C@@H]1[C@H]2[C@H]3[C@H]([C@H](OC(C)=O)[C@H](OC(C)=O)[C@]2(C)[C@@H]2[C@@H]1[C@]1(C)C(=C[C@H]2C)OC(=O)[C@@]1(C)O)[C@]1(C)[C@H](C[C@@H]2O[C@@H]2[C@@H]1OC(C)=O)C(=O)C3(O)O` showed a pIC50 of 5.30.
